Measurements: patent EP1101492A1, “NOVEL REMEDIES FOR ALLERGIC DISEASES” (FUJI YAKUHIN KOGYO KABUSHIKI KAISHA, priority 1998, dated 2000)
“And” between values parts separate entries of the source, which are not always exact repeats. Equal entries are not always repeated.

What was measured:
NC/Jic mice = assay: Spontaneously manifested allergic dermatitis in NC/Jic mice (ointment); type: in vivo
Description: Compound No. 130 was well blended with an equivalent mixture of polyethylene glycol 400 and polyethylene glycol 4000 to give an approximately homogeneous product. Thus, an ointment containing the test compound at a rate of 0.1% was prepared. For control groups, an ointment base alone was employed.
Male NC/Jic mice (body weight, 24.1 to 31.9 g; age, 12 to 24 weeks old; supplier, Clea Japan, Inc.) were checked for their health after purchase. Immediately after the health check, the mice were housed under conventional conditions until dermatitis occurred. Mouse heads surrounding auricle portions were observed by eye once daily during the preparatory housing and, after a start in painting with ointments, once daily prior to painting. The severity of spontaneous dermatitis was scored according to a pre-assigned sore table (Table 8) for the observation of dermatitis. Animals seriatim used in the experiment were selected from those showing signs of dermatitis with score 1 or 2 for 3 consecutive days or longer.
The ointment was warmed to about 37°C prior to administration, and open-painted onto diseased sites at 100 mg/dosage/day. Seven weeks were set as a drug application period.

Body weight gain in mice = conditions: test compounds 60 mg/kg s.c., prednisolone 10 mg/kg i.p., once a day for 6 days (Days 0-5), average ± standard deviation
Description: Accordingly, for assessing the side-effect each of the following test compounds an action on body weight gains was examined.
Next the mice were measured for their body weight. Each body weight gain was calculated on Days 5, 7 and 10 post-administration based on the body weight just prior to administration.

[1] = system: allergic inflammation models (air pouch models); assay: Allergic inflammation model (air pouch model): leukocyte infiltration; type: in vivo, rats; conditions: 10 mg/kg or 30 mg/kg, into the air pouch at the second challenge or systemically 30 minutes prior; exudate 8 hours after second challenge; dexamethasone 0.1 mg/kg as comparison
Description: Compound No. 130 was dissolved in physiological saline to make the final concentration 2.5 mg/mL (equal to 10 mg/kg) or 7.5 mg/mL (equal to 30 mg/kg) and administered into an air pouch of animals or intraperitoneally at a dose of 4 mL/kg. Dexamethasone was also dissolved in physiological saline to make the final concentration 25 µg/mL (equal to 0.1 mg/kg) and administered into an air pouch of animals at a dose of 4 mL/kg. Administration into such an air pouch was conducted simultaneously with the second challenge while the intraperitoneal administration was 30 minutes prior to the second challenge. Acetylated bovine serum albumin diazo-coupled with arsanilic acid (ABA-AcBSA) was prepared according to the Ouchi et al. and Tabachnick et al. methods as disclosed in Ouchi et al., "Seibutsu Yakukagaku Jikken Koza, Ensho To Allergy (Inflammation and Allergy) I-2", pp.194 to 206, Hirokawa Publishing Co., Japan and Tabachnick et al., The Journal of Biological Chemistry, 234: 1726- 1730, 1959, and mixed with a Freund's complete adjuvant (Difco) at an equal ratio. The mixture was treated using a connection-type glass syringe to form an emulsion which was used as a sensitizing solution. […] The retrieved exudates were measured by a dye-exclusion method using a haematocytometer and the number of exudated leukocytes were counted.

SMILES: CNC(=O)[C@H](Cc1ccc(NC(=N)N)cc1)NC(=O)[C@H](CC(C)C)C(CCCc1ccccc1)C(=O)NO (single isomer, unassigned) [Compound No. 130, N-[4-(N-Hydroxyamino)-2(R)-isobutyl-3(R or S)-(3-phenyltrimethylene)succinyl)-L-4'-guanidophenylalanine-N-methylamide 1 acetate]
- Dermatitis Score (Average ± S. D.*) (NC/Jic mice; 0.1 % ointment, 100 mg/dosage/day for seven weeks, score (0-4) on Day 49, 3 animals, ointment base 3.7 ± 0.6): 2.3 ± 1.5
- scratching actions (individual animals) (NC/Jic mice; 0.1% ointment, counted for 30 minutes before painting, Days 47 to 48, ointment base 126, 138, 206): 19 scratching actions and 81 scratching actions and 177 scratching actions
- scratching actions (average) (NC/Jic mice; 0.1% ointment, counted for 30 minutes before painting, Days 47 to 48, ointment base average 157): 92 scratching actions
- Body Weight Gain, Observation Day 5 (Body weight gain in mice; non-administered 0.50± 0.23): 0.57± 0.61
- Body Weight Gain, Observation Day 7 (Body weight gain in mice; non-administered 0.80± 0.48): 0.77± 0.55
- Body Weight Gain, Observation Day 10 (Body weight gain in mice; non-administered 1.07± 0.58): 1.20± 0.26
- infiltration of leukocytes into an air pouch (FIG. 14) [1]: significantly inhibited
